According to patent US9661854B2, “Molecules having pesticidal utility, and intermediates, compositions, and processes, related thereto” (Dow AgroSciences LLC, priority 2015, dated 2017):

Key:
Format in all cases: in vivo
[1] = system: Beet Armyworm (Spodoptera exigua, LAPHEG); experiment: Bioassay on Beet Armyworm (BAW), 128-well diet tray assay; details: 168 h, 50 μg/cm^2 on artificial diet, second instar larvae, 25° C., five to seven days, average of eight wells, read-out: BAW % Control (or Mortality) rating
In short: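 Second-instar larvae, one to five per well, fed artificial diet surface-treated with 50 μg/cm^2 test molecule in 90:10 acetone-water, dried before infestation; eight wells per molecule. Held at 25 °C, 14:10 light-dark for five to seven days; percent mortality averaged over wells.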

[2] = system: Yellow Fever Mosquito (Aedes aegypti, AEDSAE); details: about 1 day-old larvae, master plate 4000 ppm solution diluted, room temperature, scored after 3 days
Procedure: Example B: Bioassays on Yellow Fever Mosquito (Aedes aegypti, AEDSAE (“YFM”)
Certain molecules disclosed in this document were tested against YFM using procedures described in the following paragraph. In the reporting of the results, the “YFM Rating Table” was used (See Table Section).
Master plates containing 400 μg of a molecule dissolved in 100 μL of dimethyl sulfoxide (DMSO) (equivalent to a 4000 ppm solution) are used. A master plate of assembled molecules contains 15 μL per well. To this plate, 135 μL of a 90:10 water/acetone mixture is added to each well. A robot (Biomek® NXP Laboratory Automation Workstation) is programmed to dispense 15 μL aspirations from the master plate into an empty 96-well shallow plate (“daughter” plate). There are 6 reps (“daughter” plates) created per master. The created “daughter” plates are then immediately infested with YFM larvae.
The day before plates are to be treated, mosquito eggs are placed in Millipore water containing liver powder to begin hatching (4 g into 400 mL). After the “daughter” plates are created using the robot, they are infested with 220 μL of the liver powder/larval mosquito mixture (about 1 day-old larvae). After plates are infested with mosquito larvae, a non-evaporative lid is used to cover the plate to reduce drying. Plates are held at room temperature for 3 days prior to grading. After 3 days, each well is observed and scored based on mortality. The results are indicated in the table entitled “Table ABC: Biological Results” (See Table Section).

[3] = system: Cabbage Looper (Trichoplusia ni, TRIPNI); experiment: Bioassay on Cabbage Looper (CL), 128-well diet tray assay; details: 168 h, 50 μg/cm^2 on artificial diet, second instar larvae, 25° C., five to seven days, average of eight wells, read-out: CL % Control (or Mortality) rating
In short: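 Second-instar larvae (one to five per well) placed on artificial diet treated with 50 μg/cm^2 test molecule in 90:10 acetone-water, dried; eight wells per molecule. Held at 25° C., 14:10 light-dark, for five to seven days. Percent mortality scored per well and averaged over the eight wells.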

| SMILES | mortality at 50 µg/cm2 [1] [%] | YFM % Control (or Mortality) rating [2] | mortality at 50 µg/cm2 [3] [%] |
| --- | --- | --- | --- |
| Cc1ccc(OC(C)(C)C)c(N2C(=O)CS/C2=N\C(=O)Nc2ccc(CCc3ncn(-c4ccc(OC(F)(F)F)cc4)n3)cc2)c1 [F14, (Z)-1-(3-(2-(tert-Butoxy)-5-methylphenyl)-4-oxothiazolidin-2-ylidene)-3-(4-(2-(1-(4-(trifluoromethoxy)phenyl)-1H-1,2,4-triazol-3-yl)ethyl)phenyl)urea] | 50 to 100 | A (80-100) | 50 to 100 |
| Cc1ccc(C(C)C)c(N2C(=O)CS/C2=N\C(=O)Nc2ccc(CC(C)c3ncn(-c4ccc(OC(F)(F)F)cc4)n3)cc2)c1 (stereo not drawn) [F15, (Z)-1-(3-(2-Isopropyl-5-methylphenyl)-4-oxothiazolidin-2-ylidene)-3-(4-(2-(1-(4-(trifluoromethoxy)phenyl)-1H-1,2,4-triazol-3-yl)propyl)phenyl)urea] | 50 to 100 | A (80-100) | 50 to 100 |
| Cc1ccc(C(C)C)c(N2C(=O)CS/C2=N\C(=O)Nc2ccc(CCc3ncn(-c4ccc(OC(F)(F)F)cc4)n3)c(F)c2)c1 [F23, (Z)-1-(3-Fluoro-4-(2-(1-(4-(trifluoromethoxy)phenyl)-1H-1,2,4-triazol-3-yl)ethyl)phenyl)-3-(3-(2-isopropyl-5-methylphenyl)-4-oxothiazolidin-2-ylidene)urea] | 50 to 100 | A (80-100) | 50 to 100 |
| CCCc1ccc(C)cc1N1C(=O)CS/C1=N\C(=O)Nc1ccc(CCc2ncn(-c3ccc(OC(F)(F)F)cc3)n2)cc1F [F26, (Z)-1-(2-Fluoro-4-(2-(1-(4-(trifluoromethoxy)phenyl)-1H-1,2,4-triazol-3-yl)ethyl)phenyl)-3-(3-(5-methyl-2-propylphenyl)-4-oxothiazolidin-2-ylidene)urea] | 50 to 100 | A (80-100) | 50 to 100 |
| Cc1ccc(C(C)C)c(N2C(=O)CS/C2=N\C(=O)Nc2ccc(/C=C/c3ncn(-c4ccc(OC(F)(F)F)cc4)n3)cc2)c1 [F38, 1-((Z)-3-(2-isopropyl-5-methylphenyl)-4-oxothiazolidin-2-ylidene)-3-(4-((E)-2-(1-(4-(trifluoromethoxy)phenyl)-1H-1,2,4-triazol-3-yl)vinyl)phenyl)urea] | 50 to 100 | A (80-100) | 50 to 100 |
| CCC(C)Oc1ccc(C)cc1N1C(=O)CS/C1=N\C(=O)Nc1ccc(/C=C/c2ncn(-c3ccc(OC(F)(F)F)cc3)n2)cc1F (stereo not drawn) [F60, 1-((Z)-3-(2-(sec-Butoxy)-5-methylphenyl)-4-oxothiazolidin-2-ylidene)-3-(2-fluoro-4-((E)-2-(1-(4-(trifluoromethoxy)phenyl)-1H-1,2,4-triazol-3-yl)vinyl)phenyl)urea] | 50 to 100 | A (80-100) | 50 to 100 |
| CC(C)c1ccc(C(F)(F)F)cc1N1C(=O)CS/C1=N\C(=O)Nc1ccc(/C=C/c2ncn(-c3ccc(OC(F)(F)F)cc3)n2)cc1 [F65, 1-((Z)-3-(2-isopropyl-5-(trifluoromethyl)phenyl)-4-oxothiazolidin-2-ylidene)-3-(4-((E)-2-(1-(4-(trifluoromethoxy)phenyl)-1H-1,2,4-triazol-3-yl)vinyl)phenyl)urea] | 50 to 100 | – | 50 to 100 |
| Cc1ccc(C2CC2(F)F)c(N2C(=O)CS/C2=N\C(=O)Nc2ccc(/C=C/c3ncn(-c4ccc(OC(F)(F)F)cc4)n3)cc2)c1 (stereo not drawn) [F66, 1-((Z)-3-(2-(2,2-Difluorocyclopropyl)-5-methylphenyl)-4-oxothiazolidin-2-ylidene)-3-(4-((E)-2-(1-(4-(trifluoromethoxy)phenyl)-1H-1,2,4-triazol-3-yl)vinyl)phenyl)urea] | 50 to 100 | – | 50 to 100 |
| Cc1ccc(C2CC2(F)F)c(N2C(=O)CS/C2=N\C(=O)Nc2ccc(/C=C/c3ncn(-c4ccc(OC(F)(F)F)cc4)n3)cc2F)c1 (stereo not drawn) [F67, 1-((Z)-3-(2-(2,2-difluorocyclopropyl)-5-methylphenyl)-4-oxothiazolidin-2-ylidene)-3-(2-fluoro-4-((E)-2-(1-(4-(trifluoromethoxy)phenyl)-1H-1,2,4-triazol-3-yl)vinyl)phenyl)urea] | 50 to 100 | – | 50 to 100 |
| COCc1ccc(C)cc1N1C(=O)CS/C1=N\C(=O)Nc1c(F)cc(/C=C/c2ncn(-c3ccc(OC(F)(F)F)cc3)n2)cc1F [F68, 1-(2,6-Difluoro-4-((E)-2-(1-(4-(trifluoromethoxy)phenyl)-1H-1,2,4-triazol-3-yl)vinyl)phenyl)-3-((Z)-3-(2-(methoxymethyl)-5-methylphenyl)-4-oxothiazolidin-2-ylidene)urea] | 50 to 100 | – | 50 to 100 |
| Cc1ccc(C(C)C)c(N2C(=O)CS/C2=N\C(=O)Nc2ccc(/C=C/c3ncn(-c4ccc(OC(F)(F)F)cn4)n3)cc2)c1 [F69, 1-((Z)-3-(2-isopropyl-5-methylphenyl)-4-oxothiazolidin-2-ylidene)-3-(4-((E)-2-(1-(5-(trifluoromethoxy)pyridin-2-yl)-1H-1,2,4-triazol-3-yl)vinyl)phenyl)urea] | 50 to 100 | – | 50 to 100 |
| Cc1ccc(C(C)C)c(N2C(=O)CS/C2=N\C(=O)Nc2ccc(/C=C/c3ncn(-c4ccc(OC(F)(F)F)cc4)n3)cn2)c1 [F70, 1-((Z)-3-(2-isopropyl-5-methylphenyl)-4-oxothiazolidin-2-ylidene)-3-(5-((E)-2-(1-(4-(trifluoromethoxy)phenyl)-1H-1,2,4-triazol-3-yl)vinyl)pyridin-2-yl)urea] | 50 to 100 | – | 50 to 100 |
| Cc1ccc(C(C)C)c(N2C(=O)CS/C2=N\C(=O)Nc2ccc(/C=C/c3ncn(-c4ccc(OC(F)(F)F)cn4)n3)cn2)c1 [F71, 1-((Z)-3-(2-isopropyl-5-methylphenyl)-4-oxothiazolidin-2-ylidene)-3-(5-((E)-2-(1-(5-(trifluoromethoxy)pyridin-2-yl)-1H-1,2,4-triazol-3-yl)vinyl)pyridin-2-yl)urea] | 50 to 100 | – | 50 to 100 |
| Cc1ccc(C(C)C)c(N2C(=O)CS/C2=N\C(=O)Nc2ccc(/C=C/c3ncn(-c4ncc(C(F)(F)F)cc4Cl)n3)cc2)c1 [F72, 1-(4-((E)-2-(1-(3-chloro-5-(trifluoromethyl)pyridin-2-yl)-1H-1,2,4-triazol-3-yl)vinyl)phenyl)-3-((Z)-3-(2-isopropyl-5-methylphenyl)-4-oxothiazolidin-2-ylidene)urea] | 50 to 100 | – | 50 to 100 |
| Cc1ccc(C(C)C)c(N2C(=O)CS/C2=N\C(=O)Nc2ccc(C3CC3c3ncn(-c4ccc(OC(F)(F)F)cc4)n3)cc2)c1 (stereo not drawn) [F73, (Z)-1-(3-(2-Isopropyl-5-methylphenyl)-4-oxothiazolidin-2-ylidene)-3-(4-(2-(1-(4-(trifluoromethoxy)phenyl)-1H-1,2,4-triazol-3-yl)cyclopropyl)phenyl)urea] | 50 to 100 | – | 50 to 100 |
| Cc1ccc(C(C)C)c(N2C(=O)CS/C2=N\C(=O)Nc2ccc(CCc3ncn(-c4ccc(OC(F)(F)F)cn4)n3)cc2)c1 [F74, (Z)-1-(3-(2-Isopropyl-5-methylphenyl)-4-oxothiazolidin-2-ylidene)-3-(4-(2-(1-(5-(trifluoromethoxy)pyridin-2-yl)-1H-1,2,4-triazol-3-yl)ethyl)phenyl)urea] | 50 to 100 | – | 50 to 100 |
| O=C(/N=C1\SCC(=O)N1c1cccnc1)Nc1ccc(CCc2ncn(-c3ccc(OC(F)(F)F)cc3)n2)cc1 [F75, (Z)-1-(4-Oxo-3-(pyridin-3-yl)thiazolidin-2-ylidene)-3-(4-(2-(1-(4-(trifluoromethoxy)phenyl)-1H-1,2,4-triazol-3-yl)ethyl)phenyl)urea] | 50 to 100 | – | 50 to 100 |
| CC(C)c1ccccc1N1C(=O)CS/C1=N\C(=O)Nc1ccc(CCc2ncn(-c3ccc(C(F)(F)F)cc3C#N)n2)cc1 [F76, (Z)-1-(4-(2-(1-(2-cyano-4-(trifluoromethyl)phenyl)-1H-1,2,4-triazol-3-yl)ethyl)phenyl)-3-(3-(2-isopropylphenyl)-4-oxothiazolidin-2-ylidene)urea] | 50 to 100 | A (80-100) | 50 to 100 |
| O=C(/N=C1\SCC(=O)N1C1CCCCC1)Nc1ccc(/C=C/c2ncn(-c3ccc(OC(F)(F)F)cc3)n2)cc1F [F78, 1-((Z)-3-Cyclohexyl-4-oxothiazolidin-2-ylidene)-3-(2-fluoro-4-((E)-2-(1-(4-(trifluoromethoxy)phenyl)-1H-1,2,4-triazol-3-yl)vinyl)phenyl)urea] | 50 to 100 | – | 50 to 100 |
